The record followed here is PubChem BioAssay (NCI).

Holding throughout (assay): NCI-60 cell line screen, 48 h
The subject of experiment [1] is HL-60(TB) leukemia.
Experiment [2] relates to HOP-92 NSCLC.
Experiment [3] has as its system SK-MEL-5 melanoma.
The subject of experiment [4] is SW-620 colon.
Experiment [5] concerns M14 melanoma.
For experiment [6], the system named is 786-0 renal.
For experiment [7], the system named is SN12C renal.
The test system of experiment [8] is NCI-H23 lung.
Experiment [9] concerns K-562 leukemia.
For experiment [10], the system named is NCI-H522 lung.

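Five compound concentrations were applied to cells in 96-well plates for 48 hours; endpoints were derived by simple linear interpolation of the resulting dose-response curve. GI50 = concentration required for 50% inhibition of growth. At the TGI there is no net growth.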 Where a SMILES comes first, the peptide text is derived from it. The star is where a group is joined. Boc = CC(C)(C)OC(=O)*

Turning to `CCOP(=O)(OCC)/C(=C\N1C(=O)CC(=O)NC1=S)C(=O)OC`, the TGI in experiment [1], in experiment [2], in experiment [3], in [4], in experiment [5] and in experiment [6] was greater than 100 µM each time. The TGI in experiment [7] and in experiment [8] was greater than 100 µM in each case.
On to `CN1C/C(=C\c2ccc(Cl)cc2)C(=O)/C(=C/c2ccc(Cl)cc2)C1`, for which the TGI in experiment [9] was greater than 100 µM; in experiment [2] it was greater than 100 µM; in [3] it was greater than 26.5 µM; in experiment [4], greater than 100 µM; in experiment [5] it was 5.48 µM; in [6], 1.26 µM. For the same compound, the TGI is greater than 100 µM in experiment [7] and greater than 22.3 µM in experiment [8].
For `Fc1ccc(C2CC(c3cccc(Nc4ccncc4)c3)=NN2c2cc(Cl)cc(Cl)c2)cc1` (stereo unspecified), the GI50 is 2.25 µM in experiment [1]; 1.81 µM in experiment [3]; 1.75 µM in [4]; 1.88 µM in experiment [10]; 1.74 µM in experiment [5]; 1.69 µM in experiment [7]. Moreover, in experiment [8], the GI50 was 1.7 µM. Moreover, the TGI in experiment [1] was found to be 5.14 µM; in experiment [3], 3.34 µM; in experiment [4] it was 3.29 µM; in experiment [10], 3.9 µM; in experiment [5], 3.28 µM; in experiment [7], 3.16 µM. Moreover, the TGI in experiment [8] is 3.19 µM.
`CC1(C)[C@@H](Cn2cnc3c(=O)[nH]c(N)nc32)CC[C@@]1(C)CO`: the TGI in [9], in experiment [2], in experiment [3], in [4], in experiment [5] and in [6] was greater than 100 µM in each case. This compound registered a TGI in experiment [7] greater than 100 µM.
As for `NC(c1ccccc1)(C(F)(F)F)P1(=O)OC(=O)c2ccccc2O1` (stereo unspecified), the TGI is greater than 100 µM in experiment [9]; 85 µM in experiment [2]; greater than 100 µM in experiment [3]; greater than 100 µM in experiment [4]; greater than 100 µM in experiment [5]; greater than 100 µM in experiment [6]. The TGI in experiment [7] and in experiment [8] was greater than 100 µM each time.
As to `CC1(C)CN(c2ccccc2)C(=O)C1OC(=O)[C@@]1(C)C[C@@H]2C=C[C@H]1C2` (stereo partly specified), the TGI is 46.3 µM in experiment [1]; greater than 100 µM in experiment [9]; 60.6 µM in experiment [2]; 29.4 µM in [3]; greater than 100 µM in experiment [4]; 40.1 µM in experiment [5]. Moreover, the results for the TGI in experiment [6], in experiment [7] and in experiment [8] were 39.2 µM, 49.8 µM and 56 µM, respectively.
Turning to `O=C(Nc1nnc(-c2ccccc2)o1)C(SC(=S)N1CCOCC1)c1ccccc1` (stereo unspecified), the TGI is 36.3 µM in [1]; greater than 100 µM in experiment [9]; 38.7 µM in experiment [3]; greater than 100 µM in experiment [4]; 93.5 µM in [10]; greater than 100 µM in experiment [5]. Further, the TGI in experiment [6] was greater than 100 µM; in experiment [7] it was greater than 100 µM; in experiment [8], 69 µM.
Consider `Oc1ccc2c(c1)CC[N+]1=C2CCC2CCCC21` (stereo unspecified), for which the TGI in experiment [2], in experiment [3], in experiment [4], in [5], in experiment [6] and in [7] was greater than 100 µM each time. The compound further showed a TGI in [8] greater than 100 µM.
As to `O=C(NNc1cn[nH]c(=O)c1Cl)/C(=C/c1ccc2c(c1)OCO2)NC(=O)c1ccccc1`, the TGI in experiment [2], in experiment [3], in [4], in experiment [5], in experiment [6] and in [7] was greater than 100 µM in each case. Moreover, the TGI in [8] was greater than 100 µM.
For `O=c1[nH]c(=O)n(COCc2ccccc2)c2ccc([N+](=O)[O-])cc12`, the TGI in experiment [1], in experiment [9], in experiment [2], in experiment [3], in experiment [4] and in experiment [5] was greater than 100 µM each time. For the same compound, the TGI in experiment [6] and in experiment [7] was greater than 100 µM throughout.
Regarding `COc1cccc2c1C1(O)C2CCCC12OCCCO2` (stereo unspecified), the TGI in experiment [1], in [9], in [3], in experiment [4], in experiment [10] and in experiment [5] was greater than 100 µM each time. Besides, the TGI in experiment [6], in experiment [7] and in experiment [8] was greater than 100 µM in each case.
With `O=c1[nH]c2ccccc2nc1/C=C(\O)C(F)F`, the TGI in experiment [1], in [9], in experiment [3], in experiment [4], in experiment [10] and in experiment [5] was greater than 100 µM each time. Also, the TGI in experiment [6], in experiment [7] and in experiment [8] was greater than 100 µM each time.
For the compound `COC(=O)C(Cc1c[nH]c2ccccc12)NC(=O)C(Cc1c[nH]c2ccccc12)NC(=O)C(Cc1c[nH]c2ccccc12)NC(=O)C(Cc1c[nH]c2ccccc12)NC(=O)OC(C)(C)C` (stereo unspecified) (Boc-WWWW-OMe; configuration not given here), the TGI in experiment [1] is 43.4 µM; in experiment [9] it was greater than 100 µM; in experiment [3] it was greater than 100 µM; in experiment [4], 62.8 µM; in experiment [10] it was greater than 100 µM; in experiment [5], greater than 100 µM. Besides, the TGI in experiment [6] was greater than 100 µM; in experiment [7], greater than 100 µM; in experiment [8] it was 92.3 µM.
As for `O=C(CN1CCCCC1)c1ccc2c(c1)Sc1ccccc1O2`, the TGI in experiment [1] was 58.1 µM; in experiment [9] it was greater than 100 µM; in experiment [2] it was 28 µM; in experiment [4], 39.1 µM; in experiment [5], 28.5 µM; in experiment [6] it was 33.2 µM. The results for the TGI in experiment [7] and in experiment [8] were 42.7 µM and 27.9 µM, respectively.
As to `CC(C)[C@H]1NC(=O)[C@H]2N=C(O[C@@H]2C)[C@@H]2CCCN2C(=O)[C@H](Cc2ccccc2)NC(=O)[C@@H]2CSC(=N2)[C@@H](Cc2ccccc2)NC(=O)[C@@H]2CSC1=N2`, the TGI in [1], in [9], in experiment [3], in experiment [4], in [10] and in experiment [5] was greater than 100 µM throughout. Further, the TGI in experiment [6], in experiment [7] and in [8] was greater than 100 µM throughout.
Turning to `O=C1CCCC2=C1C(c1ccc3c(c1)OCO3)Nc1ccc3ccccc3c12` (stereo unspecified), the TGI in experiment [3], in [4], in [10], in experiment [5], in [6] and in [7] was greater than 100 µM in each case. In [8], this compound gave a TGI greater than 100 µM.
`Nc1ccccc1NC(=O)CCCCCCC(=O)Nc1ccc2c(c1)/C(=C/c1ccc[nH]1)C(=O)N2`: the GI50 in experiment [1] was 1.8 µM; in experiment [9], 8.75 µM; in [3] it was greater than 100 µM; in experiment [4], 40.8 µM; in experiment [10], 2.78 µM; in experiment [5] it was 69.2 µM. The GI50 in experiment [7] is 4.68 µM; in experiment [8], greater than 100 µM. Also, the TGI in experiment [1], in experiment [9], in experiment [3], in [4], in [10] and in [5] was greater than 100 µM in each case. In addition, the TGI in [7] and in [8] was greater than 100 µM in each case.
For `CC(=NCCN(CCN=C(C)c1c(O)cc(C)oc1=O)CCN=C(C)c1c(O)cc(C)oc1=O)c1c(O)cc(C)oc1=O`, the TGI in experiment [1], in experiment [9], in [3], in experiment [4], in [10] and in experiment [5] was greater than 100 µM each time. The TGI in [6] and in [7] was greater than 100 µM in each case.
For the compound `COC(=O)c1ccccc1C#CCCCOS(C)(=O)=O`, the TGI in experiment [1], in experiment [9], in experiment [3], in experiment [4], in experiment [5] and in experiment [6] was greater than 10 µM each time. The TGI in experiment [7] and in experiment [8] was greater than 10 µM each time.
Consider `CC1CCc2c(sc3ncnc(N/N=C/c4ccc(Cl)c(Cl)c4)c23)C1` (stereo unspecified), for which the TGI in [1] was greater than 100 µM; in experiment [9], greater than 100 µM; in [3] it was 51.3 µM; in experiment [4], greater than 100 µM; in experiment [10], 21 µM; in [5], 30.2 µM. Further, the TGI in experiment [6] was 55.8 µM; in experiment [7], greater than 100 µM; in [8] it was 79.8 µM.
For `N=S(=O)(c1ccccc1)c1ccccc1[N+](=O)[O-]` (stereo unspecified), the TGI in [1], in [9], in [3], in experiment [4], in experiment [10] and in experiment [5] was greater than 100 µM in each case. Moreover, the TGI in [6], in [7] and in experiment [8] was greater than 100 µM throughout.
